{
  "source": "patent US7615361B2",
  "about": "“Toxicity screening methods” (Ceetox, Inc., priority 2006, dated 2009)",
  "key": {"[1]": {"experiment": "MemTox membrane leakage (AK / α-GST)", "format": "cell-based, rat", "conditions": "rat", "procedure": "(§1) One test compound (Compound A) was received as dry powder and evaluated for potential cytotoxicity in a battery of in vitro assays. The compound was tested using both rat cardiomyocytes (CM) from rat neonates and a rat hepatoma (H4IIE) cell line. […] The cell supernatant or the cells themselves were harvested for biochemical analysis. General cytotoxicity was evaluated by monitoring membrane integrity, mitochondrial function, cell proliferation, oxidative stress, and apoptosis. In addition, interaction with P-glycoprotein (PgP) on H4IIE cells and solubility of the test compound were also assessed. The means of each exposure group (n=3-7) were calculated for each assay performed.\n(§2) Experimental Protocol: The test compound was provided and stored at 4° C. until needed. Dosing solutions were prepared in complete culture medium. The rat hepatoma (H4IIE) cell line was used as the test system.\nMembrane Leakage (α-Glutathione S-transferase and/or Adenylate Kinase): The presence of Adenylate Kinase (AK) or α-Glutathione S-transferase (α-GST), both enzyme leakage markers, was measured in the culture medium using an activity assay for Adenylate Kinase and/or an ELISA assay for α-GST. At the end of the exposure period, the medium covering the cells in each well was removed and placed into new 96-well plates with appropriate labeling. […] Luminescence (AK) values were measured with a Packard Fusion or equivalent plate reader, and absorbance (α-GST) values were measured with a Packard SpectraCount™ or equivalent reader at 450 nm and reference absorbance at 650 nm.\nMembrane Leakage (α-Glutathione S-transferase and/or Adenylate Kinase): Leakage of Adenylate Kinase or α-GST from the cell into the culture medium was determined by collecting the culture medium at the end of the exposure period. Thus, the values measured represent total enzyme leakage lost over the exposure period. The control for 100% dead or maximum enzyme release was based on cells treated with 1 mM digitonin at the time of dosing. Percent dead cells relative to digitonin treated cells was determined and then subtracted from 100% to yield the percent live cells."}, "Intracellular ATP levels": {"experiment": "Intracellular ATP levels", "format": "cell-based, rat", "conditions": "rat", "procedure": "as §1, §2\nIntracellular ATP Levels: Cellular Adenosine triphosphate (ATP) was determined with an assay based on a reaction between ATP+D-luciferin+oxygen catalyzed by luciferase to yield Oxyluciferin+AMP+PPi+CO2+light. The emitted light is proportional to the amount of ATP present. […] In addition, a unique cell lysis reagent inhibits endogenous ATPases and therefore stabilizes cellular ATP by preventing its degradation to ADP. ATP is present in all-living cells and declines rapidly upon cell death. In addition, this assay in combination with the MTT assay provides an indicator of mitochondrial activity and energy status of the cell.\nPlates were analyzed immediately or stored at −20° C. until needed. On the day of analysis, the plates were thawed and calibration curve prepared with ATP in the same liquid matrix as samples. ATP was quantified by adding ATP substrate solution and then reading luminescence on a Packard Fusion Luminescence or equivalent plate reader.\nIntracellular ATP Levels: ATP levels in treated cells could be determined by using the regression coefficients obtained from the linear regression analysis of the calibration curve. Thus, values could be expressed as pmoles ATP/million cells. Background corrected luminescence was used to determine percent change relative to controls by dividing treated values by control values and multiplying by 100."}, "H4IIE cells": {"tested_on": "H4IIE cells", "experiment": "Caspase 3 activity (apoptosis)", "format": "cell-based, rat", "procedure": "as §1, §2\n(§3) Caspase 3 Procedure: Caspase 3 activity was determined using a caspase substrate (DEVD, Asp-Glu-Val-Asp) labeled with a fluorescent molecule, 7-Amino4-methylcoumarin (AMC). Caspase 3 cleaves the tetrapeptide between D and AMC, thus releasing the fluorogenic […] AMC. Following the test article exposure to cells in 96-well plates, medium was aspirated from plates and PBS added to each well. Plates were stored at −80° C. to lyse cells and store samples until further analysis. On the day of analysis, plates were removed from freezer and thawed. Caspase buffer with fluorescent substrate was added to each well and incubated at room temperature for 1 hr. AMC release was measured in a spectrofluorometer at an excitation wavelength of 360 nm and an emission wavelength of 460 nm. Values are expressed as relative fluorescent units (RFU).\n(§4) Caspase Activity: After sample plates were completely thawed, the caspase substrate buffer mix was added to each plate. Plates were incubated at room temperature for 1hr, shielded from light. Plates were read using a in a spectrofluorometer at an excitation wavelength of 360 nm and an emission wavelength of 460 nm. Values were expressed as relative fluorescent units (RFU).\n(§5) The key to the maximal response data can be found below Table 2."}, "rat cardiomyocytes": {"tested_on": "rat cardiomyocytes", "experiment": "Caspase 3 activity (apoptosis)", "format": "cell-based", "procedure": "as §1, §3, §4, §5"}, "[2]": {"conditions": "H4IIE rat hepatoma cells, H4IIE, 24 HR exposure, read-out: MemTox TC50"}, "[3]": {"conditions": "H4IIE rat hepatoma cells, H4IIE, 24 HR exposure, read-out: ATP TC50"}, "[4]": {"conditions": "H4IIE, 24 HR, exposure concentration that produced the response (μM series)"}},
  "data": [
    {"smiles": "O=C1c2c(O)ccc(O)c2C(=O)c2c(NCCNCCO)ccc(NCCNCCO)c21", "note": "[MITOXANTRONE, mitoxantrone]", "values": [
      {"measurement": "CC50 at 24 h", "setting": "[1]; MemTox TC50", "result": "> 300", "unit": "µM"},
      {"measurement": "CC50 at 24 h", "setting": "Intracellular ATP levels; ATP TC50", "result": 5, "unit": "µM"}
    ]},
    {"smiles": "COc1cccc2c1C(=O)c1c(O)c3c(c(O)c1C2=O)C[C@@](O)(C(=O)CO)C[C@@H]3O[C@H]1C[C@H](N)[C@H](O[C@@H]2CCCCO2)[C@H](C)O1", "note": "[PIRARUBICIN, pirarubicin]", "values": [
      {"measurement": "CC50 at 24 h", "setting": "[1]; [2]", "result": 50, "unit": "µM"},
      {"measurement": "CC50 at 24 h", "setting": "Intracellular ATP levels; [3]", "result": 8, "unit": "µM"},
      {"measurement": "Caspase 3 Activity (Index/Dose): Index", "setting": "H4IIE cells; H4IIE, 24 HR", "result": "8 (1400-1600 = 8)"},
      {"measurement": "Caspase 3 Activity (Index/Dose): Dose", "setting": "H4IIE cells; [4]", "result": "10 (1800-2000 = 10)"}
    ]},
    {"smiles": "COc1cccc2c1C(=O)c1c(O)c3c(c(O)c1C2=O)C[C@@](O)(C(C)=O)C[C@@H]3O[C@H]1C[C@H](N)[C@H](O)[C@H](C)O1", "note": "[DAUNORUBICIN, daunorubicin]", "values": [
      {"measurement": "CC50 at 24 h", "setting": "[1]", "result": 41, "unit": "µM"},
      {"measurement": "CC50 at 24 h", "setting": "Intracellular ATP levels", "result": 7, "unit": "µM"}
    ]},
    {"smiles": "CC(C)Nc1cccnc1N1CCN(C(=O)c2cc3cc(NS(C)(=O)=O)ccc3[nH]2)CC1", "note": "[DELAVIRDINE, delavirdine]", "values": [
      {"measurement": "CC50 at 24 h", "setting": "[1]; MemTox TC50", "result": "> 300", "unit": "µM"},
      {"measurement": "CC50 at 24 h", "setting": "Intracellular ATP levels; ATP TC50", "result": 257, "unit": "µM"},
      {"measurement": "Caspase 3 Activity (Index/Dose): Dose", "setting": "rat cardiomyocytes; rat, 24 h", "result": 100}
    ]},
    {"smiles": "COc1cccc2c1C(=O)c1c(O)c3c(c(O)c1C2=O)C[C@@](O)(C(=O)CO)C[C@@H]3O[C@H]1C[C@H](N)[C@@H](O)[C@H](C)O1", "note": "[EPIRUBICIN, epirubicin]", "values": [
      {"measurement": "CC50 at 24 h", "setting": "[1]; MemTox TC50", "result": 37, "unit": "µM"},
      {"measurement": "CC50 at 24 h", "setting": "Intracellular ATP levels; ATP TC50", "result": 32, "unit": "µM"},
      {"measurement": "Caspase 3 Activity (Index/Dose): Dose", "setting": "rat cardiomyocytes; rat, 24 h", "result": 20},
      {"measurement": "Caspase 3 Activity (Index/Dose): Dose", "setting": "H4IIE cells; rat, 24 h", "result": 50}
    ]},
    {"smiles": "C=C(C)[C@H]1Cc2c(ccc3c2O[C@@H]2COc4cc(OC)c(OC)cc4[C@@H]2C3=O)O1", "note": "[ROTENONE, Rotenone]", "values": [
      {"measurement": "CC50 at 24 h", "setting": "[1]; H4IIE, 24 HR exposure, read-out: MemTox TC50", "result": 100, "unit": "µM"},
      {"measurement": "CC50 at 24 h", "setting": "Intracellular ATP levels; H4IIE, 24 HR exposure, read-out: ATP TC50", "result": 0.04, "unit": "µM"}
    ]},
    {"smiles": "Nc1nc(NC2CC2)c2ncn([C@H]3C=C[C@@H](CO)C3)c2n1", "note": "[ABACAVIR, abacavir]", "values": [
      {"measurement": "CC50 at 24 h", "setting": "[1]; MemTox TC50", "result": "> 300", "unit": "µM"},
      {"measurement": "CC50 at 24 h", "setting": "Intracellular ATP levels; ATP TC50", "result": 154, "unit": "µM"}
    ]},
    {"smiles": "Cc1cccc(C)c1OCC(=O)N[C@@H](Cc1ccccc1)[C@@H](O)C[C@H](Cc1ccccc1)NC(=O)[C@H](C(C)C)N1CCCNC1=O", "note": "[LOPINAVIR, lopinavir]", "values": [
      {"measurement": "CC50 at 24 h", "setting": "[1]; MemTox TC50", "result": "> 300", "unit": "µM"},
      {"measurement": "CC50 at 24 h", "setting": "Intracellular ATP levels; ATP TC50", "result": 195, "unit": "µM"},
      {"measurement": "Caspase 3 Activity (Index/Dose): Dose", "setting": "rat cardiomyocytes; rat, 24 h", "result": 100},
      {"measurement": "Caspase 3 Activity (Index/Dose): Dose", "setting": "H4IIE cells; rat, 24 h", "result": 300}
    ]},
    {"smiles": "CC(=O)[C@]1(O)Cc2c(O)c3c(c(O)c2[C@@H](O[C@H]2C[C@H](N)[C@H](O)[C@H](C)O2)C1)C(=O)c1ccccc1C3=O", "note": "[IDARUBICIN, idarubicin]", "values": [
      {"measurement": "CC50 at 24 h", "setting": "[1]; MemTox TC50", "result": 30, "unit": "µM"},
      {"measurement": "CC50 at 24 h", "setting": "Intracellular ATP levels; ATP TC50", "result": 2, "unit": "µM"}
    ]},
    {"smiles": "O=C1Nc2ccc(Cl)cc2[C@@](C#CC2CC2)(C(F)(F)F)O1", "note": "[EFAVIRENZ, efavirenz]", "values": [
      {"measurement": "CC50 at 24 h", "setting": "[1]; MemTox TC50", "result": 181, "unit": "µM"},
      {"measurement": "CC50 at 24 h", "setting": "Intracellular ATP levels; ATP TC50", "result": 162, "unit": "µM"}
    ]},
    {"smiles": "CC[C@@]1(O)C(=O)OCc2c1cc1n(c2=O)Cc2cc3ccccc3nc2-1", "note": "[CAMPTOTHECIN, Camptothecin]", "values": [
      {"measurement": "CC50 at 24 h", "setting": "[1]; [2]", "result": "> 300", "unit": "µM"},
      {"measurement": "CC50 at 24 h", "setting": "Intracellular ATP levels; [3]", "result": 1, "unit": "µM"},
      {"measurement": "Caspase 3 Activity (Index/Dose): Index", "setting": "rat cardiomyocytes; CM, 24 HR", "result": "6 (1000-1200 = 6)"},
      {"measurement": "Caspase 3 Activity (Index/Dose): Dose", "setting": "rat cardiomyocytes; CM, 24 HR, exposure concentration that produced the response (μM series)", "result": 300},
      {"measurement": "Caspase 3 Activity (Index/Dose): Index", "setting": "H4IIE cells; H4IIE, 24 HR", "result": "5 (800-1000 = 5)"},
      {"measurement": "Caspase 3 Activity (Index/Dose): Dose", "setting": "H4IIE cells; [4]", "result": 100}
    ]}
  ]
}
